Results as given in patent publication US10471046B2, “Method for treating, preventing, or reducing the risk of skin infection” (Melinta Subsidiary Corp., priority 2014, dated 2019).
≈ marks a conversion by molar mass, not a printed value.

Tests used:
[1] = tested on: G. vaginalis; test: Agar dilution MIC (CLSI reference method); type: cell-based; conditions: for MIC: Gardnerella vaginalis
[2] = tested on: B. fragilis; test: Broth microdilution MIC; type: cell-based; conditions: Bacteroides fragilis, ATCC25285; B. fragilis ATCC 25285
[3] = tested on: intracellular S. aureus (including linezolid-resistant); conditions: cited from earlier work
[4] = Human exposure (AUC 0-24); conditions: in vivo; human @ 300 mg dose

Q: For `CC(=O)NC[C@H]1CN(c2ccc(-c3ccc(CNCc4cnn[nH]4)cc3)c(F)c2)C(=O)O1` [Radezolid, (5S)—N-[3-(2-Fluoro-4′-{[(1H-[1,2,3]triazol-4-ylmethyl)-amino]-methyl}-biphenyl-4-yl)-2-oxo-oxazolidin-5-ylmethyl]-acetamide], which “agar dilution MIC, fold more potent than linezolid” value ([1]; G. vaginalis) is on record?
A: 8 fold

Q: And the MIC ([1]; ATCC14018, G. vaginalis ATCC 14018)?
A: 0.06 µg/mL (≈ 0.137 µM)

Q: And the MIC ([1]; ATCC49145, G. vaginalis ATCC 49145)?
A: 0.06 µg/mL (≈ 0.137 µM)

Q: What about the MIC [2] of the same compound?
A: 2 µg/mL (≈ 4.56 µM)

Q: What about the intracellular killing [3] of the same compound?
A: kills

Q: What about the AUC(0-t) [4] of the same compound?
A: 3330 ng·h/mL
